In the first test the target is hDGAT2 (Homo sapiens (Human), UniProt Q96PD7). In words: DGAT2 enzymatic activity assay (triolein formation, LC/MS/MS).
hDGAT2, sequence (Q96PD7 whole entry): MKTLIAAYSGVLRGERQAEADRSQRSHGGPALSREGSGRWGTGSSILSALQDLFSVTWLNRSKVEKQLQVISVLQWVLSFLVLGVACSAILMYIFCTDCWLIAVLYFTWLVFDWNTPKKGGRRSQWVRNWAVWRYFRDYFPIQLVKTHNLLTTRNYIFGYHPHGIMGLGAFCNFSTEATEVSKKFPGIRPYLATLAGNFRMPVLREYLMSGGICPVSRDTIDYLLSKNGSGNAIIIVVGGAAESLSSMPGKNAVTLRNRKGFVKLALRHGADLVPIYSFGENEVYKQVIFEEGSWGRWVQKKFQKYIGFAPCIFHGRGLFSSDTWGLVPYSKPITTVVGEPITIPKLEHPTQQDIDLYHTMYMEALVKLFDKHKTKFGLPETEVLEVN
Conditions: not given
For the compound `COc1cccc(-c2ccc(CNC(=O)c3ccc(-n4cccn4)cc3)c3cnccc23)c1` [Example 65, N-((5-(3-methoxyphenyl)isoquinolin-8-yl)methyl)-4-(1H-pyrazol-1-yl)benzamide], the IC50 (in general, the concentration needed to halve the response being measured) was determined as 2 µM.

The same test, now with this note: read-out: IC50 values for inhibition of DGAT2; membrane prep of Sf-9 cells expressing hDGAT2; 25 μM diolein, 10 μM oleoyl-CoA; room temperature; triolein by LC/MS/MS.
Regarding `COc1cccc(-c2ccc(CNC(=O)c3cncc4ccccc34)c3cnccc23)c1` [Example 33, N-((5-(3-methoxyphenyl)isoquinolin-8-yl)methyl)isoquinoline-4-carboxamide], the IC50 amounted to 3.41 µM.

As for `COc1cccc(-c2ccc(CNC(=O)c3cccc(-n4cccn4)c3)c3cnccc23)c1` [Example 34, N-((5-(3-methoxyphenyl)isoquinolin-8-yl)methyl)-3-(1H-pyrazol-1-yl)benzamide], the IC50 is 7.36 µM.

For `CCc1cc(C(=O)NCc2ccc(-c3cccc(OC)c3)c3ccncc23)n(C)n1` [Example 35, 3-ethyl-N-((5-(3-methoxyphenyl)isoquinolin-8-yl)methyl)-1-methyl-1H-pyrazole-5-carboxamide], the IC50 was 3.44 µM.

As for `COc1cccc(-c2ccc(CNC(=O)c3ccc4c(c3)OCCO4)c3cnccc23)c1` [Example 36, N-((5-(3-methoxyphenyl)isoquinolin-8-yl)methyl)-2,3-dihydrobenzo[b][1,4]dioxine-6-carboxamide], the IC50 is 3.01 µM.

In the case of `COc1cccc(-c2ccc(CNC(=O)c3cnco3)c3cnccc23)c1` [Example 37, N-((5-(3-methoxyphenyl)isoquinolin-8-yl)methyl)oxazole-5-carboxamide], the IC50 came to 1.27 µM.

In the case of `COc1cccc(-c2ccc(CNC(=O)c3ncco3)c3cnccc23)c1` [Example 38, N-((5-(3-methoxyphenyl)isoquinolin-8-yl)methyl)oxazole-2-carboxamide], the IC50 was found to be 3.2 µM.

Turning to `COc1cccc(-c2ccc(CNC(=O)c3noc4c3CCCC4)c3cnccc23)c1` [Example 39, N-((5-(3-methoxyphenyl)isoquinolin-8-yl)methyl)-4,5,6,7-tetrahydrobenzo[d]isoxazole-3-carboxamide], the IC50 amounted to 9.39 µM.

For the compound `COc1cccc(-c2ccc(CNC(=O)c3ccc4nccnc4c3)c3cnccc23)c1` [Example 40, N-((5-(3-methoxyphenyl)isoquinolin-8-yl)methyl)quinoxaline-6-carboxamide], the IC50 turned out to be 6 µM.

For the compound `COc1cccc(-c2ccc(CNC(=O)C3CCCN(c4ccccn4)C3)c3cnccc23)c1` (centres unmarked) [Example 41, N-((5-(3-methoxyphenyl)isoquinolin-8-yl)methyl)-1-(pyridin-2-yl)piperidine-3-carboxamide], the IC50 amounted to 7.78 µM.

On to `COc1cccc(-c2ccc(CNC(=O)c3nn(C)c(=O)c4ccccc34)c3cnccc23)c1` [Example 43, N-((5-(3-methoxyphenyl)isoquinolin-8-yl)methyl)-3-methyl-4-oxo-3,4-dihydrophthalazine-1-carboxamide], for which the concentration for half-maximal inhibition (IC50) was determined as 1.57 µM.

For `CCCc1cc(C(=O)NCc2ccc(-c3cccc(OC)c3)c3ccncc23)n(C)n1` [Example 44, N-((5-(3-methoxyphenyl)isoquinolin-8-yl)methyl)-1-methyl-3-propyl-1H-pyrazole-5-carboxamide], the IC50 came out at 1.43 µM.

Take `COc1cccc(-c2ccc(CNC(=O)c3cccc4ncccc34)c3cnccc23)c1` [Example 45, N-((5-(3-methoxyphenyl)isoquinolin-8-yl)methyl)quinoline-5-carboxamide]: the IC50 was determined as 0.745 µM.

As for `COc1cccc(-c2ccc(CNC(=O)Cc3ccc(C(F)(F)F)cc3)c3cnccc23)c1` [Example 46, N-((5-(3-methoxyphenyl)isoquinolin-8-yl)methyl)-2-(4-(trifluoromethyl)phenyl)acetamide], the half-inhibitory concentration (IC50) stood at 0.317 µM.

For `COc1cccc(-c2ccc(CNC(=O)Cc3ccc(Cl)cc3)c3cnccc23)c1` [Example 47, 2-(4-chlorophenyl)-N-((5-(3-methoxyphenyl)isoquinolin-8-yl)methyl)acetamide], the IC50 stood at 1.4 µM.

As to `COc1cccc(-c2ccc(CNC(=O)Cc3cccc(C(F)(F)F)c3)c3cnccc23)c1` [Example 48, N-((5-(3-methoxyphenyl)isoquinolin-8-yl)methyl)-2-(3-(trifluoromethyl)phenyl)acetamide], the IC50 stood at 0.291 µM.

For the compound `COc1cccc(-c2ccc(CNC(=O)Cc3ccccc3F)c3cnccc23)c1` [Example 49, 2-(2-fluorophenyl)-N-((5-(3-methoxyphenyl)isoquinolin-8-yl)methyl)acetamide], the IC50 was determined as 0.993 µM.

Turning to `COc1cccc(-c2ccc(CNC(=O)Cc3ccccc3C(F)(F)F)c3cnccc23)c1` [Example 51, N-((5-(3-methoxyphenyl)isoquinolin-8-yl)methyl)-2-(2-(trifluoromethyl)phenyl)acetamide], the IC50 was determined as 1.75 µM.

Take `COc1cccc(-c2ccc(CNC(=O)Cc3cccc(F)c3)c3cnccc23)c1` [Example 52, 2-(3-fluorophenyl)-N-((5-(3-methoxyphenyl)isoquinolin-8-yl)methyl)acetamide]: the IC50 turned out to be 3.71 µM.

Regarding `COc1cccc(-c2ccc(CNC(=O)Cc3ccc(Oc4ccccc4)cc3)c3cnccc23)c1` [Example 53, N-((5-(3-methoxyphenyl)isoquinolin-8-yl)methyl)-2-(4-phenoxyphenyl)acetamide], the IC50 is 2.16 µM.

In the case of `COc1cccc(-c2ccc(CNC(=O)Cc3cccc(Cl)c3)c3cnccc23)c1` [Example 54, 2-(3-chlorophenyl)-N-((5-(3-methoxyphenyl)isoquinolin-8-yl)methyl)acetamide], the IC50 worked out at 2.76 µM.

For `COc1cccc(-c2ccc(CNC(=O)Cc3ccccc3Oc3ccccc3)c3cnccc23)c1` [Example 55, N-((5-(3-methoxyphenyl)isoquinolin-8-yl)methyl)-2-(2-phenoxyphenyl)acetamide], the IC50 was found to be 0.306 µM.

For the compound `COc1cccc(-c2ccc(CNC(=O)Cc3cccc(S(C)(=O)=O)c3)c3cnccc23)c1` [Example 56, N-((5-(3-methoxyphenyl)isoquinolin-8-yl)methyl)-2-(3-(methylsulfonyl)phenyl)acetamide], the IC50 is 1.64 µM.

Consider `COc1cccc(-c2ccc(CNC(=O)Cc3ccc(OC(F)(F)F)cc3)c3cnccc23)c1` [Example 57, N-((5-(3-methoxyphenyl)isoquinolin-8-yl)methyl)-2-(4-(trifluoromethoxy)phenyl)acetamide], for which the IC50 came to 4.45 µM.

In the case of `COc1cccc(-c2ccc(CNC(=O)Cc3ccc(F)c(F)c3F)c3cnccc23)c1` [Example 58, N-((5-(3-methoxyphenyl)isoquinolin-8-yl)methyl)-2-(2,3,4-trifluorophenyl)acetamide], the IC50 is 7.29 µM.

For `COc1cccc(-c2ccc(CNC(=O)Cc3cc(F)c(F)cc3F)c3cnccc23)c1` [Example 59, N-((5-(3-methoxyphenyl)isoquinolin-8-yl)methyl)-2-(2,4,5-trifluorophenyl)acetamide], the IC50 is 0.55 µM.

For `COc1cccc(-c2ccc(CNC(=O)Cc3cc(F)c(F)c(F)c3)c3cnccc23)c1` [Example 60, N-((5-(3-methoxyphenyl)isoquinolin-8-yl)methyl)-2-(3,4,5-trifluorophenyl)acetamide], the IC50 turned out to be 2.14 µM.

Turning to `COc1cccc(-c2ccc(CNC(=O)Cc3ccccc3OC(F)(F)F)c3cnccc23)c1` [Example 61, N-((5-(3-methoxyphenyl)isoquinolin-8-yl)methyl)-2-(2-(trifluoromethoxy)phenyl)acetamide], the IC50 was 0.759 µM.

Regarding `COc1cccc(-c2ccc(CNC(=O)Cc3cccc(OC(F)(F)F)c3)c3cnccc23)c1` [Example 62, N-((5-(3-methoxyphenyl)isoquinolin-8-yl)methyl)-2-(3-(trifluoromethoxy)phenyl)acetamide], the IC50 turned out to be 0.602 µM.

As to `COc1cccc(-c2ccc(CNC(=O)Cc3ccc4c(c3)OCCO4)c3cnccc23)c1` [Example 63, 2-(2,3-dihydrobenzo[b][1,4]dioxin-6-yl)-N-((5-(3-methoxyphenyl)isoquinolin-8-yl)methyl)acetamide], the IC50 was found to be 3.05 µM.

With `COc1cccc(-c2ccc(CNC(=O)Cc3csc(-c4ccc(F)cc4)n3)c3cnccc23)c1` [Example 64, 2-(2-(4-fluorophenyl)thiazol-4-yl)-N-((5-(3-methoxyphenyl)isoquinolin-8-yl)methyl)acetamide], the 50% inhibitory concentration (IC50) came to 0.609 µM.

With `COc1cccc(-c2ccc(CNC(=O)c3cn(-c4ccccc4)nc3-c3ccccc3)c3cnccc23)c1` [Example 66, N-((5-(3-methoxyphenyl)isoquinolin-8-yl)methyl)-1,3-diphenyl-1H-pyrazole-4-carboxamide], the IC50 worked out at 0.479 µM.

As for `COc1cccc(-c2ccc(CNC(=O)c3ccc(N4CCCC4=O)cc3)c3cnccc23)c1` [Example 67, N-((5-(3-methoxyphenyl)isoquinolin-8-yl)methyl)-4-(2-oxopyrrolidin-1-yl)benzamide], the IC50 stood at 1.95 µM.

For the compound `COc1cccc(-c2ccc(CNC(=O)c3cccc(-n4nc(C)cc4C)c3)c3cnccc23)c1` [Example 68, 3-(3,5-dimethyl-1H-pyrazol-1-yl)-N-((5-(3-methoxyphenyl)isoquinolin-8-yl)methyl)benzamide], the IC50 worked out at 1.65 µM.

Take `COc1cccc(-c2ccc(CNC(=O)c3ccnc(-n4cnnn4)c3)c3cnccc23)c1` [Example 69, N-((5-(3-methoxyphenyl)isoquinolin-8-yl)methyl)-2-(1H-tetrazol-1-yl)isonicotinamide]: the IC50 stood at 3.41 µM.

On to `COc1cccc(-c2ccc(CNC(=O)c3coc(-c4ccccc4)n3)c3cnccc23)c1` [Example 70, N-((5-(3-methoxyphenyl)isoquinolin-8-yl)methyl)-2-phenyloxazole-4-carboxamide], for which the IC50 amounted to 2.33 µM.

As for `COc1cccc(-c2ccc(CNC(=O)c3noc(-c4ccccc4)n3)c3cnccc23)c1` [Example 72, N-((5-(3-methoxyphenyl)isoquinolin-8-yl)methyl)-5-phenyl-1,2,4-oxadiazole-3-carboxamide], the IC50 is 3.89 µM.

For the compound `COc1cccc(-c2ccc(CNC(=O)c3c[nH]c(-c4ccccc4)n3)c3cnccc23)c1` [Example 73, N-((5-(3-methoxyphenyl)isoquinolin-8-yl)methyl)-2-phenyl-1H-imidazole-4-carboxamide], the IC50 was 5.84 µM.

The values above are taken from patent US9828369B2, “Isoquinoline derivatives useful as inhibitors of diacylglyceride O-acyltransferase 2” (Merck Sharp & Dohme Corp., priority 2014, dated 2017).
